Read-outs that look alike come from different tables or passages of the source. Ends that are not written are not given here.
Tests used:
K. pneumoniae ATCC 13883 = conditions: ATCC 13883, 16 h
E. coli ATCC 8739 = conditions: ATCC 8739, 16 h
P. aeruginosa ATCC 9027 [1] = conditions: ATCC 9027, 16 h
[2] = tested on: preformed P. aeruginosa ATCC 15442 biofilm; assay: Biofilm eradication (postexposure); format: cell-based, Pseudomonas aeruginosa; conditions: 128-0.5 μM, 16 h; resazurin
Protocol: After 16 h of incubation at 37°C and shaking at 110 rpm (New Brunswick Innova 4300), a resazurin assay was used as described by Gilbert-Girard et al. to determine the viability of the bacterial cells in the biofilm ([79]). After incubation, the growth medium was removed from the well plates and the bacterial biofilms were washed once with PBS to remove remaining planktonic cells. […] The fluorescence of the wells was measured at λexcitation = 550 nm and λemission = 590 using a microplate reader (Promega). Afterwards, a crystal violet staining was applied to determine the biomass of the biofilms ([79]). The resazurin solution was removed from the well plates and 200 μL of 100% ethanol (VWR Chemicals) was added to fix the biofilms. After 15 min of incubation, the ethanol was discarded from the wells and the plates were left to air dry for 30 min. […] The staining solution was removed after 5 min and the biofilms were washed with PBS. After air-drying for 10 min, the crystal violet stain was solubilized in 200 μL of 100% ethanol. […] The experiment was carried out three times. Polymyxin B sulfate (Sigma-Aldrich) was included as a reference. […] The next day, bacterial viability and biomass were determined with a resazurin assay and crystal violet assay as described earlier. […]

B. cenocepacia LMG 16656 = conditions: for IC50: read-out: IC50 B. cenocepacia LMG 16656, starting at 32 μM, 10^5 CFU/mL, 48 h, 37°C, resazurin; for MIC B. cenocepacia LMG 16656: visual
P. aeruginosa ATCC 9027 [3] = assay: Time-to-kill analysis; format: cell-based, Pseudomonas aeruginosa
Protocol: To investigate the bactericidal kinetics of the selected AMPs, a time-to-kill analysis was performed as described previously by Mascio et al. ([78]). Briefly, peptide serial dilutions were prepared in 96-well plates (10 μL) and mixed with 190 μL of a P. aeruginosa ATCC 9027 culture of an optical density measured at a wavelength of 600 nm (OD600) of 0.1. Plates were incubated at 37°C and at selected time points (0 h, 0.5 h, 1 h, 2 h, 4 h, and 5 h), aliquots were removed and serially diluted in PBS. The dilutions were plated on TSA and incubated overnight at 37°C. Afterwards, bacterial viability was assessed by performing a standard plate count. Bactericidal activity was defined as a ≥3-log reduction compared with the untreated bacterial control. To avoid carry-over effect of the peptides, the undiluted sample was not plated, leading to a quantification limit of 10^3 CFU/mL ([78]). Bacterial counts were calculated for each AMP concentration at each time point using the average plate count. Afterwards, log10 reductions of the bacterial counts were calculated using the following formula: log10 reduction = log10 (viable microorganisms without AMP treatment/viable microorganisms with AMP treatment). Next, the average log10 reductions and the standard deviations of five independent experiments were calculated and visualized using GraphPad Prism 8.

[4] = tested on: M. tuberculosis ATCC 25177 (H37Ra); conditions: for IC50: read-out: IC50 M. tuberculosis ATCC 25177 (H37Ra), starting at 32 μM, 5×10^5 CFU/mL, 7 days, 37°C, resazurin; for MIC M. tuberculosis ATCC 25177 (H37Ra): visual

RWYKKIFKPVEKAVQRVRDGTLQALGVAQQAANVYATAQGAQQQRHA-NH2 [Hill-Cec10]
MIC K. pneumoniae (K. pneumoniae ATCC 13883): 0.5 to 1 µM | MIC E. coli ATCC 8739 (E. coli ATCC 8739): 1 µM | IC50 (P. aeruginosa ATCC 9027 [1]): 0.75 µM | effect on viability of preformed biofilm compared with the untreated control [2]: No significant effect | IC50 (B. cenocepacia LMG 16656; repeat 1): > 32 µM | IC50 (B. cenocepacia LMG 16656; repeat 2): > 32 µM | MIC B. cenocepacia LMG 16656 (B. cenocepacia LMG 16656; repeat 1): >32 µM | MIC B. cenocepacia LMG 16656 (B. cenocepacia LMG 16656; repeat 2): >32 µM | log10 reduction of P. aeruginosa (P. aeruginosa ATCC 9027 [3]; 8 μM (8 × MIC Hill-Cec1, 4 × MIC Hill-Cec10), after 5 h, mean ± SD of five experiments): 2.44 ± 0.46 log10 | log10 reduction of P. aeruginosa (P. aeruginosa ATCC 9027 [3]; 16 μM (8 × MIC), after 5 h, mean ± SD of five experiments): 4.60 ± 0.94 log10 | log10 reduction of P. aeruginosa (P. aeruginosa ATCC 9027 [3]; 16 μM (8 × MIC), always (all experiments)): ≥ 3 log10 | concentration needed to maintain bactericidal activity (P. aeruginosa ATCC 9027 [3]; time-to-kill, ≥3-log10 reduction vs growth control): ≥ 16 µM | IC50 ([4]; repeat 1): > 32 µM | IC50 ([4]; repeat 2): > 32 µM | MIC M. tuberculosis ATCC 25177 (H37Ra) ([4]; repeat 1): >32 µM | MIC M. tuberculosis ATCC 25177 (H37Ra) ([4]; repeat 2): >32 µM
